Experimental data published in patent US20200164060A1, “HERPES SIMPLEX VIRUS VACCINE EPITOPES SP[…] TISSUE RESIDENT MEMORY T CELLS” (priority 2017, published 2020).

System: biopsy-derived HSV-2-specific CD4 TRM
Assay: single peptide test with biopsy-derived HSV-2-specific CD4 TRM, IFN-γ secretion
Format: cell-based, human
Conditions: peptide at 1 μg/ml; HLA-expressing cells as antigen presenting cells; media control gave no response
From the text: FIG. 14. CD4 epitopes: peptide pools→singles. For this example, biopsy-derived cells recognize Cos7 co-transfected with the combination of a subject HLA molecule and HSV-2 UL19 gene. A rectangular matrix of peptides covering UL19 was created and row and column pools were made as indicated on the X axis of the top graph. Only one row pool and one column pool gave a positive proliferative response using the assay described in FIG. 13. The peptide at the intersection of the positive row and column pools, UL19 305-319 (SEQ ID NO: 14), was tested at 1 μg/ml using HLA-expressing cells as antigen presenting cells and biopsy-derived HSV-2-specific CD4 TRM as responder cells. The readout was IFN-γ secretion, as shown in the bottom graphs.
The technology used to determine the fine peptide specificity of biopsy-derived CD4 T cells that recognize HSV-2 has been described in Johnston, et al., Journal of Virology 88, 4921-4931 (2014). In brief, every HSV-2 was expressed. […] T cell activation was detected by proliferation or IFN-γ secretion assays. Once the identity of reactive HSV-2 proteins were determined, peptides from within that protein were tested in repeat assays as described in Johnston, et al., Journal of Virology 88, 4921-4931, (2014). In some cases, dose-response assays were conducted as described in Jing, et al., Journal of Immunology 196, 2205-2218, (2016). […]

Question: Which “IFN-γ response from the biopsy cells” value does the source give for TYGEMVLNGANLVTA [SEQ ID NO: 14] here?
Answer: elicited an IFN-γ response
